# Test results: patent US12478617B2, “Lipidated peptide inhibitors of interleukin-23 receptor” (JANSSEN BIOTECH, INC., priority 2021, dated 2025)
# Starred links: 1 amine or outer side, 2 acyl side, 3 side chain; linkers in the order of their positions; H or OH if unused. Positions of bridges follow the written chain, without caps; N, C: chain ends. Non-standard residues stand in square brackets, D forms with d. Residues, ends and D or L forms follow the SMILES beside them. Groups on a side chain read outwards from the residue. *: point of attachment. Trp(7-Me) = Cc1cccc2c(C[C@H](N)C(=O)O)c[nH]c12; C18 diacid = O=C(O)CCCCCCCCCCCCCCCCC(=O)*; C16 diacid = O=C(O)CCCCCCCCCCCCCCC(=O)*; γGlu = O=C(O)[C@H](CCC(=O)[*:2])N[*:1]; 2Nal = N[C@@H](Cc1ccc2ccccc2c1)C(=O)O; AEF = NCCOc1ccc(C[C@H](N)C(=O)O)cc1; PEG6 = NCCOCCOCCOCCOCCOCCOCCC(=O)O; Stearoyl = CCCCCCCCCCCCCCCCCC(=O)*; 3Pal = N[C@@H](Cc1cccnc1)C(=O)O; Pen = CC(C)(S)[C@H](N)C(=O)O; Thp = NC1(C(=O)O)CCOCC1; AEEA = NCCOCCOCC(=O)O; Sar = CNCC(=O)O
# Molecular target: T1, IL-23R (Homo sapiens, UniProt Q5VWK5)
# T1 construct: HEK293 cells containing IL-23R, IL-12RP31 and a firefly luciferase reporter gene driven by a STAT-inducible promoter (Promega); host or cells: HEK293
# T1 sequence (Q5VWK5 24-629): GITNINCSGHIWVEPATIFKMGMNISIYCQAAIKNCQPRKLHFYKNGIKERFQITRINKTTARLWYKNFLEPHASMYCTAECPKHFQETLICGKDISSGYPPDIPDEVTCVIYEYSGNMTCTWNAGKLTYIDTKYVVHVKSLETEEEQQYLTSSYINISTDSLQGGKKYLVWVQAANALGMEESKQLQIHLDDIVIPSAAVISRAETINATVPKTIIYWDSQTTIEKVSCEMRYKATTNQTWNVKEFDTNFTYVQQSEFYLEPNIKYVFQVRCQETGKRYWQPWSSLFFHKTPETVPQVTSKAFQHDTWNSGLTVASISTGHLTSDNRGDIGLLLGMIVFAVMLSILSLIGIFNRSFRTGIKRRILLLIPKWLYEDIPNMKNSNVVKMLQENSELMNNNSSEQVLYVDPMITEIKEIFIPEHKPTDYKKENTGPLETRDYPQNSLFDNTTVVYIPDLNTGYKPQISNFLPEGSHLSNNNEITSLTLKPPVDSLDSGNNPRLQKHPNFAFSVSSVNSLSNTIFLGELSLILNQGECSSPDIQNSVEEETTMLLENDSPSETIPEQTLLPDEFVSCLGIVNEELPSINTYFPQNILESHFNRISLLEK
# Assay: IL23R Reporter Assay
# Assay type: cell-based
# Description: IL-23 binding to IL-23 receptors results in the activation of the Signal Transducer and Activator of Transcription 3 (STAT3) by phosphorylation and downstream signaling events. Accordingly. the ability of the inhibitors described herein to block IL-23 action can be assessed by monitoring the status of STAT3 activation in response to IL-23. This may be accomplished in reporter cell assays or in intact cells such as peripheral blood mononuclear cells (PBMCs).
# Compounds were serially diluted in 100% (v/v) DMSO) and plated using an Echo acoustic dispenser (Labcyte) into 1536-well non-treated black assay plates (Corning #9146). […] After 5 h at 37° C., 5% CO2, 95% relative humidity, cells were placed at 20° C. and treated with BioGlo reagent (Promega) according to the Manufacturer's instructions. Luminescence was measured on a Pherastar FSX (BMG LabTech).
row,IC50 [nM],SMILES
1,0.052,"CCCCCCCCCCCCCCCCCC(=O)N[C@@H](CCC(=O)NCCCC[C@H](NC(=O)C1(NC(=O)[C@H](Cc2ccc3ccccc3c2)NC(=O)[C@H](Cc2ccc(OCCN)cc2)NC(=O)[C@H]2NC(=O)[C@H](CCCCNC(C)=O)NC(=O)[C@H](Cc3c[nH]c4c(C)cccc34)NC(=O)[C@H]([C@@H](C)O)NC(=O)[C@H](CC(N)=O)NC(=O)[C@@H](NC(C)=O)C(C)(C)SSC2(C)C)CCOCC1)C(=O)N[C@@H](CC(N)=O)C(=O)N[C@@H](Cc1cccnc1)C(=O)N(C)CC(N)=O)C(=O)O [Example 31, MeCO-Pen*-N-T-7MeW-K(Ac)-Pen*-AEF-2Nal-THP-K(gEC18)-N-3Pya-Sar-CONH2] (Ac-[Pen]NT[Trp(7-Me)]K(Ac)[Pen][AEF][2Nal][Thp]K([γGlu-Stearoyl])N[3Pal][Sar]-NH2; disulfide 1-6)"
2,0.065,"CC(=O)NCCCC[C@@H]1NC(=O)[C@H](Cc2c[nH]c3c(C)cccc23)NC(=O)[C@H]([C@@H](C)O)NC(=O)[C@H](CC(N)=O)NC(=O)[C@@H](NC(C)=O)C(C)(C)SSC(C)(C)[C@@H](C(=O)N[C@@H](Cc2ccc(OCCN)cc2)C(=O)N[C@@H](Cc2ccc3ccccc3c2)C(=O)NC2(C(=O)N[C@@H](CCCCNC(=O)COCCOCCNC(=O)CC[C@H](NC(=O)CCCCCCCCCCCCCCC(=O)O)C(=O)O)C(=O)N[C@@H](CC(N)=O)C(=O)N[C@@H](Cc3cccnc3)C(=O)N(C)CC(N)=O)CCOCC2)NC1=O [Example 34, MeCO-Pen*-N-T-7MeW-K(Ac)-Pen*-AEF-2Nal-THP-K(PEG2gEC16OH)-N-3Pya-Sar-CONH2] (Ac-[Pen]NT[Trp(7-Me)]K(Ac)[Pen][AEF][2Nal][Thp]K([AEEA-γGlu-C16 diacid])N[3Pal][Sar]-NH2; disulfide 1-6)"
3,0.19,"CC(=O)NCCCC[C@@H]1NC(=O)[C@H](Cc2c[nH]c3c(C)cccc23)NC(=O)[C@H]([C@@H](C)O)NC(=O)[C@H](CC(N)=O)NC(=O)[C@@H](NC(C)=O)C(C)(C)SSC(C)(C)[C@@H](C(=O)N[C@@H](Cc2ccc(OCCN)cc2)C(=O)N[C@@H](Cc2ccc3ccccc3c2)C(=O)NC2(C(=O)N[C@@H](CCCCNC(=O)COCCOCCNC(=O)CC[C@H](NC(=O)CCCCCCCCCCCCCCCCC(=O)O)C(=O)O)C(=O)N[C@@H](CC(N)=O)C(=O)N[C@@H](Cc3cccnc3)C(=O)N(C)CC(N)=O)CCOCC2)NC1=O [Example 35, MeCO-Pen*-N-T-7MeW-K(Ac)-Pen*-AEF-2Nal-THP-K(PEG2gEC18OH)-N-3Pya-Sar-CONH2] (Ac-[Pen]NT[Trp(7-Me)]K(Ac)[Pen][AEF][2Nal][Thp]K([AEEA-γGlu-C18 diacid])N[3Pal][Sar]-NH2; disulfide 1-6)"
4,0.14,"CC(=O)NCCCC[C@@H]1NC(=O)[C@H](Cc2c[nH]c3c(C)cccc23)NC(=O)[C@H]([C@@H](C)O)NC(=O)[C@H](CC(N)=O)NC(=O)[C@@H](NC(C)=O)C(C)(C)SSC(C)(C)[C@@H](C(=O)N[C@@H](Cc2ccc(OCCN)cc2)C(=O)N[C@@H](Cc2ccc3ccccc3c2)C(=O)NC2(C(=O)N[C@@H](CCCCNC(=O)COCCOCCNC(=O)COCCOCCNC(=O)CC[C@H](NC(=O)CCCCCCCCCCCCCCCCCCC(=O)O)C(=O)O)C(=O)N[C@@H](CC(N)=O)C(=O)N[C@@H](Cc3cccnc3)C(=O)N(C)CC(N)=O)CCOCC2)NC1=O [Example 36, MeCO-Pen*-N-T-7MeW-K(Ac)-Pen*-AEF-2Nal-THP-K(PEG2PEG2gEC20OH)-N-3Pya-Sar-CONH2]"
5,0.19,"CC(=O)NCCCC[C@@H]1NC(=O)[C@H](Cc2c[nH]c3c(C)cccc23)NC(=O)[C@H]([C@@H](C)O)NC(=O)[C@H](CC(N)=O)NC(=O)[C@@H](NC(=O)[C@@H](CCCNC(=N)N)NC(=O)COCCOCCNC(=O)COCCOCCNC(=O)CC[C@H](NC(=O)CCCCCCCCCCCCCCC(=O)O)C(=O)O)C(C)(C)SSC(C)(C)[C@@H](C(=O)N[C@@H](Cc2ccc(OCCN)cc2)C(=O)N[C@@H](Cc2ccc3ccccc3c2)C(=O)NC2(C(=O)N[C@@H](CCCCNC(=O)COCCOCCNC(=O)COCCOCCNC(=O)CC[C@H](NC(=O)CCCCCCCCCCCCCCC(=O)O)C(=O)O)C(=O)N[C@@H](CC(N)=O)C(=O)N[C@@H](Cc3cccnc3)C(=O)N(C)CC(N)=O)CCOCC2)NC1=O [Example 37, HOC16gEPEG2PEG2-r-Pen*-N-T-7MeW-K(Ac)-Pen*-AEF-2Nal-THP-K(PEG2PEG2gEC16OH)-N-3Pya-Sar-CONH2] ({C16 diacid-γGlu-AEEA-AEEA}-[dR][Pen]NT[Trp(7-Me)]K(Ac)[Pen][AEF][2Nal][Thp]K([AEEA-AEEA-γGlu-C16 diacid])N[3Pal][Sar]-NH2; disulfide 2-7)"
6,0.048,"CC(=O)NCCCC[C@@H]1NC(=O)[C@H](Cc2c[nH]c3c(C)cccc23)NC(=O)[C@H]([C@@H](C)O)NC(=O)[C@H](CC(N)=O)NC(=O)[C@@H](NC(C)=O)C(C)(C)SSC(C)(C)[C@@H](C(=O)N[C@@H](Cc2ccc(OCCN)cc2)C(=O)N[C@@H](Cc2ccc3ccccc3c2)C(=O)NC2(C(=O)N[C@@H](CCCCNC(=O)COCCOCCNC(=O)CCOCCOCCOCCOCCOCCOCCNC(=O)CC[C@H](NC(=O)CCCCCCCCCCCCCCCCC(=O)O)C(=O)O)C(=O)N[C@@H](CC(N)=O)C(=O)N[C@@H](Cc3cccnc3)C(=O)N(C)CC(N)=O)CCOCC2)NC1=O [Example 39, MeCO-Pen*-N-T-7MeW-K(Ac)-Pen*-AEF-2Nal-THP-K(PEG2PEG6gEC18OH)-N-3Pya-Sar-CONH2] (Ac-[Pen]NT[Trp(7-Me)]K(Ac)[Pen][AEF][2Nal][Thp]K([AEEA-PEG6-γGlu-C18 diacid])N[3Pal][Sar]-NH2; disulfide 1-6)"
7,0.078,"CC(=O)NCCCC[C@@H]1NC(=O)[C@H](Cc2c[nH]c3c(C)cccc23)NC(=O)[C@H]([C@@H](C)O)NC(=O)[C@H](CC(N)=O)NC(=O)[C@@H](NC(C)=O)C(C)(C)SSC(C)(C)[C@@H](C(=O)N[C@@H](Cc2ccc(OCCN)cc2)C(=O)N[C@@H](Cc2ccc3ccccc3c2)C(=O)NC2(C(=O)N[C@@H](CCCCNC(=O)COCCOCCNC(=O)COCCOCCNC(=O)CCCCCCCCCCCCCCCCC(=O)O)C(=O)N[C@@H](CC(N)=O)C(=O)N[C@@H](Cc3cccnc3)C(=O)N(C)CC(N)=O)CCOCC2)NC1=O [Example 41, MeCO-Pen*-N-T-7MeW-K(Ac)-Pen*-AEF-2Nal-THP-K(PEG2PEG2C18OH)-N-3Pya-Sar-CONH2] (Ac-[Pen]NT[Trp(7-Me)]K(Ac)[Pen][AEF][2Nal][Thp]K([AEEA-AEEA-C18 diacid])N[3Pal][Sar]-NH2; disulfide 1-6)"
8,0.029,"CC(=O)NCCCC[C@@H]1NC(=O)[C@H](Cc2c[nH]c3c(C)cccc23)NC(=O)[C@H]([C@@H](C)O)NC(=O)[C@H](CC(N)=O)NC(=O)[C@@H](NC(C)=O)C(C)(C)SSC(C)(C)[C@@H](C(=O)N[C@@H](Cc2ccc(OCCN)cc2)C(=O)N[C@@H](Cc2ccc3ccccc3c2)C(=O)NC2(C(=O)N[C@@H](CCCCNC(=O)CCOCCOCCOCCOCCOCCOCCNC(=O)CCOCCOCCOCCOCCOCCOCCNC(=O)CC[C@H](NC(=O)CCCCCCCCCCCCCCC(=O)O)C(=O)O)C(=O)N[C@@H](CC(N)=O)C(=O)N[C@@H](Cc3cccnc3)C(=O)N(C)CC(N)=O)CCOCC2)NC1=O [Example 42, MeCO-Pen*-N-T-7MeW-K(Ac)-Pen*-AEF-2Nal-THP-K(PEG6PEG6gEC16OH)-N-3Pya-Sar-CONH2] (Ac-[Pen]NT[Trp(7-Me)]K(Ac)[Pen][AEF][2Nal][Thp]K([PEG6-PEG6-γGlu-C16 diacid])N[3Pal][Sar]-NH2; disulfide 1-6)"
9,0.049,"CC(=O)NCCCC[C@@H]1NC(=O)[C@H](Cc2c[nH]c3c(C)cccc23)NC(=O)[C@H]([C@@H](C)O)NC(=O)[C@H](CC(N)=O)NC(=O)[C@@H](NC(C)=O)C(C)(C)SSC(C)(C)[C@@H](C(=O)N[C@@H](Cc2ccc(OCCN)cc2)C(=O)N[C@@H](Cc2ccc3ccccc3c2)C(=O)NC2(C(=O)N[C@@H](CCCCNC(=O)CCOCCOCCOCCOCCOCCOCCNC(=O)CCOCCOCCOCCOCCOCCOCCNC(=O)CC[C@H](NC(=O)CCCCCCCCCCCCCCCCC(=O)O)C(=O)O)C(=O)N[C@@H](CC(N)=O)C(=O)N[C@@H](Cc3cccnc3)C(=O)N(C)CC(N)=O)CCOCC2)NC1=O [Example 43, MeCO-Pen*-N-T-7MeW-K(Ac)-Pen*-AEF-2Nal-THP-K(PEG6PEG6gEC18OH)-N-3Pya-Sar-CONH2] (Ac-[Pen]NT[Trp(7-Me)]K(Ac)[Pen][AEF][2Nal][Thp]K([PEG6-PEG6-γGlu-C18 diacid])N[3Pal][Sar]-NH2; disulfide 1-6)"
